One test has as its system DOHH2 cells. As to the kind of experiment: Cell proliferation assay (MTS), DOHH2 cells, 120 h. In kind it is cell-based. In outline:
(§1)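 Cells in RPMI-1640 with 10% FBS were seeded at 5000/well, left overnight at 37° C., 5% CO2, then exposed to compound at 10000 down to 1.5 nM (nine concentrations) for 72 h (RS4;11) or 120 h (DOHH2). Viability was read by MTS, 2 h, absorbance at 490/650 nm; IC50 calculated.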

A further test deals with RS4;11 cells. As to the kind of experiment: Cell proliferation assay (MTS), RS4;11 cells, 72 h. In kind it is cell-based. The following applies: Homo sapiens, RS4-11, 72 h. In outline: as §1

Read-outs that look alike come from different tables or passages of the source.

In the case of `CN1CCN(C[C@@H]2Cc3cc(S(=O)(=O)NC(=O)c4ccc(N5CCN(CC6=C(c7ccc(Cl)cc7)CC(C)(C)CC6)CC5)cc4Oc4cnc5[nH]ccc5c4)cc([N+](=O)[O-])c3N2)CC1` [Example 1-3, (S)-2-((1H-pyrrolo[2,3-b]pyridin-5-yl)oxy)-4-(4-((4′-chloro-5,5-dimethyl-3,4,5,6-tetra-hydro-[1,1′-biphenyl]-2-yl)methyl)piperazin-1-yl)-N-((2-((4-methylpiperazin-1-yl)meth-yl)-7-nitroindolin-5-yl)sulfonyl)benzamide], the half-maximal inhibitory concentration (IC50) in the test on DOHH2 cells (Homo sapiens, DOHH-2, 120 h) amounted to 20 nM; in the test with RS4;11 cells, 8 nM.

Turning to `CC1(C)CCC(CN2CCN(c3ccc(C(=O)NS(=O)(=O)c4cc5c(c([N+](=O)[O-])c4)N[C@H](C4CCC(O)CC4)CO5)c(Oc4cnc5[nH]ccc5c4)c3)CC2)=C(c2ccc(Cl)cc2)C1` (single isomer, unassigned) [Example 2-240A], the IC50 in the test with DOHH2 cells came to 5 nM; in the test with RS4;11 cells, 1 nM.

`CC1(C)CCC(CN2CCN(c3ccc(C(=O)NS(=O)(=O)c4cc5c(c([N+](=O)[O-])c4)N[C@H](CN4CCOCC4)CN5)c(Oc4cnc5[nH]ccc5c4)c3)CC2)=C(c2ccc(Cl)cc2)C1` [Example 4-2, (S)-2-((1H-pyrrolo[2,3-b]pyridin-5-yl)oxy)-4-(4-((4′-chloro-5,5-dimethyl-3,4,5,6-tetra-hydro-[1,1′-biphenyl]-2-yl)methyl)piperazin-1-yl)-N-((2-(morpholinomethyl)-8-nitro-1,2,3,4-tetrahydroquinoxalin-6-yl)sulfonyl) benzamide]: the IC50 in the test with DOHH2 cells (Homo sapiens, DOHH-2, 120 h) was 29 nM; in the test with RS4;11 cells, 9 nM.

With `CC1(C)CCC(CN2CCN(c3ccc(C(=O)NS(=O)(=O)c4cc5c(c([N+](=O)[O-])c4)N[C@@H](Cc4ccccc4C#N)CO5)c(Oc4cnc5[nH]ccc5c4)c3)CC2)=C(c2ccc(Cl)cc2)C1` [Example 2-208, (S)-2-((1H-pyrrolo[2,3-b]pyridin-5-yl)oxy)-4-(4-((4′-chloro-5,5-dimethyl-3,4,5,6-tetra-hydro-[1,1′-biphenyl]-2-yl)methyl)piperazin-1-yl)-N-((3-(2-cyanobenzyl)-5-nitro-3,4-dihydro-2H-benzo[b][1,4]oxazin-7-yl)sulfo-nyl)benzamide], the IC50 is 110 nM in the test with DOHH2 cells (Homo sapiens, DOHH-2, 120 h) and 17 nM with RS4;11 cells.

For `CC1(C)CCC(CN2CCN(c3ccc(C(=O)NS(=O)(=O)c4cc5c(c([N+](=O)[O-])c4)N[C@H](CN4CCS(=O)(=O)CC4)CO5)c(Oc4cnc5[nH]ccc5c4)c3)CC2)=C(c2ccc(Cl)cc2)C1` [Example 2-149, (R)-2-((1H-pyrrolo[2,3-b]pyridin-5-yl)oxy)-4-(4-((4′-chloro-5,5-dimethyl-3,4,5,6-tetra-hydro-[1,1′-biphenyl]-2-yl)methyl)piperazin-1-yl)-N-((3-((1,1-dioxidothiomorpholino)methyl)-5-nitro-3,4-dihydro-2H-benzo[b] [1,4]oxazin-7-yl)sulfonyl)benzamide], the IC50 in the test with DOHH2 cells (Homo sapiens, DOHH-2, 120 h) came to 247 nM; in the test on RS4;11 cells, 50 nM.

For `CC1(C)CCC(CN2CCN(c3ccc(C(=O)NS(=O)(=O)c4cc5c(c([N+](=O)[O-])c4)N[C@@H](C4CCN(C(=O)OC(C)(C)C)CC4)CO5)c(Oc4cnc5[nH]ccc5c4)c3)CC2)=C(c2ccc(Cl)cc2)C1` [Example 2-229, tert-butyl (S)-4-(7-(N-(2-((1H-pyrrolo[2,3-b]pyridin-5-yl)oxy)-4-(4-((4′-chloro-5,5-dimethyl-3,4,5,6-tetrahydro-[1,1′-biphenyl]-2-yl)meth-yl)piperazin-1-yl)benzoyl)sulfamoyl)-5-nitro-3,4-dihydro-2H-benzo[b][1,4]oxazin-3-yl)piperidine-1-carboxylate], the half-inhibitory concentration (IC50) in the test with DOHH2 cells (Homo sapiens, DOHH-2, 120 h) was 1 nM; in the test with RS4;11 cells, 38 nM.

As for `CC1(C)CCC(CN2CCN(c3ccc(C(=O)NS(=O)(=O)c4cc5c(c([N+](=O)[O-])c4)N[C@@H](CN4CCCCC4)CO5)c(Oc4cnc5[nH]ccc5c4)c3)CC2)=C(c2ccc(Cl)cc2)C1` [Example 2-89, (S)-2-((1H-pyrrolo[2,3-b]pyridin-5-yl)oxy)-4-(4-((4′-chloro-5,5-dimethyl-3,4,5,6-tetra-hydro-[1,1′-biphenyl]-2-yl)methyl)piperazin-1-yl)-N-((5-nitro-3-(piperidin-1-ylmethyl)-3,4-dihydro-2H-benzo[b][1,4]oxazin-7-yl)sulfonyl)benzamide], the IC50 turned out to be 55 nM in the test on DOHH2 cells (Homo sapiens, DOHH-2, 120 h) and 50 nM in the test with RS4;11 cells.

Consider `CC1(C)CCC(CN2CCN(c3ccc(C(=O)NS(=O)(=O)c4cc5c(c([N+](=O)[O-])c4)NC(C4CCC(O)CC4)CO5)c(Oc4cnc5[nH]ccc5c4)c3)CC2)=C(c2ccc(Cl)cc2)C1` (centres unmarked) [Example 2-188, 2-((1H-pyrrolo[2,3-b]pyridin-5-yl)oxy)-4-(4-((4′-chloro-5,5-dimethyl-3,4,5,6-tetrahydro-[1,1′-biphenyl]-2-yl)methyl)piperazin-1-yl)-N-((3-(4-hydroxycyclohexyl)-5-nitro-3,4-dihydro-2H-benzo[b][1,4]oxazin-7-yl)sulfonyl)benzamide], for which the IC50 with DOHH2 cells (Homo sapiens, DOHH-2, 120 h) was determined as 19 nM; in the test with RS4;11 cells, 1 nM.

On to `CC1(C)CCC(CN2CCN(c3ccc(C(=O)NS(=O)(=O)c4cc5c(c([N+](=O)[O-])c4)N[C@@H](CN4CCN(S(C)(=O)=O)CC4)CO5)c(Oc4cnc5[nH]ccc5c4)c3)CC2)=C(c2ccc(Cl)cc2)C1` [Example 2-95, (S)-2-((1H-pyrrolo[2,3-b]pyridin-5-yl)oxy)-4-(4-((4′-chloro-5,5-dimethyl-3,4,5,6-tetra-hydro-[1,1′-biphenyl]-2-yl)methyl)piperazin-1-yl)-N-((3-((4-(methylsulfonyl)piperazin-1-yl)methyl)-5-nitro-3,4-dihydro-2H-ben-zo[b][1,4]oxazin-7-yl)sulfonyl)benzamide], for which the IC50 in the test on DOHH2 cells (Homo sapiens, DOHH-2, 120 h) came to 19 nM; in the test with RS4;11 cells, 45 nM.

Regarding `CC(C)OC[C@H]1COc2cc(S(=O)(=O)NC(=O)c3ccc(N4CCN(CC5=C(c6ccc(Cl)cc6)CC(C)(C)CC5)CC4)cc3Oc3cnc4[nH]ccc4c3)cc([N+](=O)[O-])c2N1` [Example 2-237, (S)-2-((1H-pyrrolo[2,3-b]pyridin-5-yl)oxy)-4-(4-((4′-chloro-5,5-dimethyl-3,4,5,6-tetra-hydro-[1,1′-biphenyl]-2-yl)methyl)piperazin-1-yl)-N-((3-(isopropoxymethyl)-5-nitro-3,4-dihydro-2H-benzo[b][1,4]oxazin-7-yl)sulfonyl)benzamide], the IC50 in the test on DOHH2 cells (Homo sapiens, DOHH-2, 120 h) came to 3 nM; with RS4;11 cells, 14 nM.

As for `CC1(C)CCC(CN2CCN(c3ccc(C(=O)NS(=O)(=O)c4cc5c(c([N+](=O)[O-])c4)N[C@H](Cc4ccc(F)cc4)CO5)c(Oc4cnc5[nH]ccc5c4)c3)CC2)=C(c2ccc(Cl)cc2)C1` [Example 2-158, (R)-2-((1H-pyrrolo[2,3-b]pyridin-5-yl)oxy)-4-(4-((4′-chloro-5,5-dimethyl-3,4,5,6-tetra-hydro-[1,1′-biphenyl]-2-yl)methyl)piperazin-1-yl)-N-((3-(4-fluorobenzyl)-5-nitro-3,4-dihydro-2H-benzo[b][1,4]oxazin-7-yl)sulfo-nyl)benzamide], the IC50 was determined as 135 nM in the test with DOHH2 cells (Homo sapiens, DOHH-2, 120 h) and 43 nM in the test with RS4;11 cells.

`CC1(C)CCC(CN2CCN(c3ccc(C(=O)NS(=O)(=O)c4cc5c(c([N+](=O)[O-])c4)N[C@@H](CN4CCN(C(=O)C6CC6)CC4)CO5)c(Oc4cnc5[nH]ccc5c4)c3)CC2)=C(c2ccc(Cl)cc2)C1` [Example 2-99, (S)-2-((1H-pyrrolo[2,3-b]pyridin-5-yl)oxy)-4-(4-((4′-chloro-5,5-dimethyl-3,4,5,6-tetra-hydro-[1,1′-biphenyl]-2-yl)methyl)piperazin-1-yl)-N-((3-((4-(cyclopropanecarbonyl)piperazin-1-yl)methyl)-5-nitro-3,4-dihydro-2H-benzo[b][1,4]oxazin-7-yl)sulfonyl)benza-mide]: the IC50 amounted to 20 nM with DOHH2 cells (Homo sapiens, DOHH-2, 120 h) and 8 nM in the test with RS4;11 cells.

As to `CN1CCN(CC[C@@H]2CSc3cc(S(=O)(=O)NC(=O)c4ccc(N5CCN(CC6=C(c7ccc(Cl)cc7)CC(C)(C)CC6)CC5)cc4Oc4cnc5[nH]ccc5c4)cc([N+](=O)[O-])c3N2)CC1` [Example 3-14, (R)-2-((1H-pyrrolo[2,3-b]pyridin-5-yl)oxy)-4-(4-((4′-chloro-5,5-dimethyl-3,4,5,6-tetra-hydro-[1,1′-biphenyl]-2-yl)methyl)piperazin-1-yl)-N-((3-(2-(4-methylpiperazin-1-yl)ethyl)-5-nitro-3,4-dihydro-2H-benzo[b][1,4]thiazin-7-yl)sulfonyl)benzamide], the IC50 in the test on DOHH2 cells (Homo sapiens, DOHH-2, 120 h) is 9 nM; in the test with RS4;11 cells it was 4 nM.

Regarding `CC1(C)CCC(c2ccc(Cl)cc2)=C(CN2CCN(c3ccc(C(=O)NS(=O)(=O)c4cc5c(c([N+](=O)[O-])c4)N[C@H](CN4C[C@@H]6C[C@H]4CO6)CO5)c(Oc4cnc5[nH]ccc5c4)c3)CC2)C1` [Example 2-209, 2-((1H-pyrrolo[2,3-b]pyridin-5-yl)oxy)-N-(((R)-3-(((1S,4S)-2-oxa-5-azabicyclo[2.2.1]heptan-5-yl)methyl)-5-nitro-3,4-dihydro-2H-benzo[b][1,4]oxazin-7-yl)sulfonyl)-4-(4-((4′-chloro-4,4-dimethyl-3,4,5,6-tetrahydro-[1,1′-biphenyl]-2-yl)methyl)piperazin-1-yl) benzamide], the concentration for half-maximal inhibition (IC50) was 35 nM with DOHH2 cells (Homo sapiens, DOHH-2, 120 h) and 1 nM with RS4;11 cells.

Turning to `C[C@H]1CN(CC[C@@H]2COc3cc(S(=O)(=O)NC(=O)c4ccc(N5CCN(CC6=C(c7ccc(Cl)cc7)CC(C)(C)CC6)CC5)cc4Oc4cnc5[nH]ccc5c4)cc([N+](=O)[O-])c3N2)CCN1C1COC1` [Example 2-40], the half-inhibitory concentration (IC50) in the test on DOHH2 cells (Homo sapiens, DOHH-2, 120 h) stood at 36 nM; in the test with RS4;11 cells it was 22 nM.

Consider `CC1(C)CCC(CN2CCN(c3ccc(C(=O)NS(=O)(=O)c4cc5c(c([N+](=O)[O-])c4)N[C@@H](CCN4CC(O)C4)CO5)c(Oc4cnc5[nH]ccc5c4)c3)CC2)=C(c2ccc(Cl)cc2)C1` [Example 2-44, (S)-2-((1H-pyrrolo[2,3-b]pyridin-5-yl)oxy)-4-(4-((4′-chloro-5,5-dimethyl-3,4,5,6-tetra-hydro-[1,1′-biphenyl]-2-yl)methyl)piperazin-1-yl)-N-((3-(2-(3-hydroxyazetidin-1-yl)eth-yl)-5-nitro-3,4-dihydro-2H-benzo[b][1,4]oxazin-7-yl)sulfonyl)benzamide], for which the IC50 in the test on DOHH2 cells (Homo sapiens, DOHH-2, 120 h) was 51 nM; in the test with RS4;11 cells it was 46 nM.
